In patent US20050266096A1, “New synergetic compositions of vitamins, minerals and trace-elements to stimulate the elimination of intra-cellular lipid deposits” (priority 2004, published 2005):

Test system: vascular smooth muscle cells
Assay: Reduction of intracellular lipid deposits in lipid-loaded cell cultures
Format: cell-based
Conditions: individual element; concentration per row in μg/ml (0.016% RDA); 3 days after exposure; vs untreated control cultures = 100% lipid deposits; n = 24
Description: To evaluate the effects of vitamins, minerals & trace-elements on the cellular capacity to eliminate intracellular lipid deposits, the cultures of vascular smooth muscle cells were prepared on plastic cover slips in vitro as described by Shrivastava at al (Meth Expt Find,1994).
A 50-60% cell monolayer was obtained within 4 days of culture. The hyperlipidemic rabbit serum was added to the culture medium, cells were incubated at 37° C.-5% CO2 for 48 h and the presence of intracellular cytoplasmic lipid deposit was quantified (considered 100% lipid deposits) . The culture medium was then replaced by a predefined blank medium containing no vitamins, minerals & trace-elements containing 1% fetal calf serum. Desired concentrations of vitamins, minerals and trace-elements were prepared in the predefined control culture medium by dissolving the test substances in the medium and by replacing the culture medium by the test product containing medium.
The in vitro cytoxicity of each vitamin, mineral and trace-element was determined. […]
The results were expressed a mean percentage decrease in intracellular lipid deposits compared to the untreated control cultures considered as containing 100% lipid deposits.

| Compound | Percent decrease in intracellular lipids |
| --- | --- |
| iron gluconate | 6.3 ± 2.7% |
| [O-2].[Zn+2] [Zinc, zinc oxide] | 16.3 ± 4.4% |
| calcium gluconate | 0.0% |
| [I-].[K+] [Iodine, potassium iodide] | 0.0% |
| [O]=[Mg] [Magnesium, magnesium oxide] | 22.0 ± 5.2% |
| [Cl-].[K+] [Potassium, potassium chloride] | 0.0% |

Same assay, conditions: tables 1-3

| Compound | effect on the reduction/elimination of intracellular lipid deposits (in words) |
| --- | --- |
| Cc1cc2nc3c(=O)[nH]c(=O)nc-3n(C[C@H](O)[C@H](O)[C@H](O)CO)c2cc1C [Vitamin B2, riboflavin] | minor effect |
| CC1=C(/C=C/C(C)=C/C=C/C(C)=C/C=C/C=C(C)/C=C/C=C(C)/C=C/C2=C(C)CCCC2(C)C)C(C)(C)CCC1 [Vitamin A, beta carotene] | minor effect |
| [O-2].[Zn+2] [Zinc, zinc oxide] | minor effect |
| Nc1nc2ncc(CNc3ccc(C(=O)N[C@@H](CCC(=O)O)C(=O)O)cc3)nc2c(=O)[nH]1 [Vitamin B9, folic acid] | minor effect |
| CC(=O)Oc1c(C)c(C)c2c(c1C)CCC(C)(CCC[C@H](C)CCC[C@H](C)CCCC(C)C)O2 (stereo partly drawn) [Vitamin E, tocopherol acetate] | minor effect |
| [O]=[Mg] [Magnesium, magnesium oxide] | minor effect |
